Measured values as given in the Deep4Chem optical property database.
One block for each compound: values may come before it.

Experiment: photoluminescence quantum yield (fraction); solvent given as SMILES

photoluminescence quantum yield (in ClC(Cl)Cl): 0.96
SMILES: Cc1ccc(C#Cc2ccc(C#Cc3ccc(C#Cc4ccccc4C#N)cc3C#N)cc2C#N)cc1

photoluminescence quantum yield (in ClCCl): 0.004
SMILES: c1ccc(C2=C(c3ccccn3)[Si](c3ccccc3)(c3ccccc3)c3ccccc32)cc1

photoluminescence quantum yield (in C1CCOC1): 0.0027
photoluminescence quantum yield (in C1COCCO1): 0.0021
photoluminescence quantum yield (in CC#N): 0.0037
photoluminescence quantum yield (in CCCCCCC): 0.0082
photoluminescence quantum yield (in CCO): 0.0035
photoluminescence quantum yield (in CO): 0.0024
photoluminescence quantum yield (in O): 0.2
SMILES: CC1(C)CC(=O)C2=C(C1)Oc1ccc3ccc(O)cc3c1C2c1ccccn1 (stereo unspecified)

photoluminescence quantum yield (in C1CCOC1): 0.06
photoluminescence quantum yield (in ClCCl): 0.06
SMILES: CCC(CC)COC1=CC2=C3c4cc(OCC(CC)CC)c(-c5cccs5)n4[B-](F)(F)[n+]4nnn(c43)[B-](F)(F)[N+]2=C1c1cccs1

photoluminescence quantum yield (in ClCCl): 0.27
SMILES: c1ccc(B2Nc3cc4c(cc3-c3sc5ccccc5c32)NB(c2ccccc2)c2c-4sc3ccccc23)cc1

SMILES: Cc1cc(C)c(B(c2c(C)cc(C)cc2C)N2c3ccccc3C(c3ccccc3)(c3ccccc3)c3ccccc32)c(C)c1
photoluminescence quantum yield (in C1CCCCC1): 0.732
photoluminescence quantum yield (in Cc1ccccc1): 0.974
photoluminescence quantum yield (in ClCCl): 0.891

photoluminescence quantum yield (in CO): 0.0028
photoluminescence quantum yield (in OCC(O)CO): 0.0011
photoluminescence quantum yield (in OCCO): 0.0014
photoluminescence quantum yield (in Oc1ccccc1): 4.3e-05
SMILES: CN(CCO)c1ccc(/N=N/c2ccc([N+](=O)[O-])cc2)cc1

photoluminescence quantum yield (in ClC(Cl)Cl): 0.98
SMILES: F[B-]1(F)n2c(cc(Br)c2Br)C(c2ccccc2)=C2C=C(Br)C(Br)=[N+]21

photoluminescence quantum yield (in ClCCl): 0.79
SMILES: c1cnc(-c2c3ccccc3c(-c3ncccn3)c3ccccc23)nc1

photoluminescence quantum yield (in CCO): 0.123
photoluminescence quantum yield (in ClCCl): 0.164
photoluminescence quantum yield (in O): 0.02
SMILES: O=Cc1ccc(-c2cccc(-c3nc4ccccc4s3)c2O)s1

photoluminescence quantum yield (in CCO): 0.63
SMILES: Cc1c(C)n2c(COC(=O)CNC(=O)OC(C)(C)C)c(C)c(=O)n2c1=O

SMILES: F[B-]1(F)n2c(cc(-c3ccccc3)c2-c2ccccc2)C(c2ccccc2)=C2C=C(c3ccccc3)C(c3ccccc3)=[N+]21
photoluminescence quantum yield (in C1CCOC1): 0.33
photoluminescence quantum yield (in CC#N): 0.34
photoluminescence quantum yield (in Cc1ccccc1): 0.64
photoluminescence quantum yield (in ClCCl): 0.4

SMILES: CCn1c2ccccc2c2cc(/C=C/c3cccc(/C=C/c4ccc5c(c4)c4ccccc4n5CC)[n+]3CCCS(=O)(=O)[O-])ccc21
photoluminescence quantum yield (in C1CCOC1): 0.1
photoluminescence quantum yield (in CC#N): 0.03
photoluminescence quantum yield (in CC(C)=O): 0.03
photoluminescence quantum yield (in Cc1ccccc1): 0.08

photoluminescence quantum yield (in CC#N): 0.65
SMILES: C=Cc1cc2cc3c(cc2oc1=O)OCO3

photoluminescence quantum yield (in C1CCOC1): 0.3
SMILES: Cc1ccc(-c2ccc(-c3ccc(-c4ccc(C)cc4)cc3/C(=C(/c3ccccc3)c3cc(-c4ccc(C)cc4)ccc3-c3ccc(-c4ccc(C)cc4)cc3)c3ccccc3)cc2)cc1

SMILES: CCC1(CC)c2cc(/C=C/c3ccc(/C=C/c4ccc5c(c4)C(CC)(CC)c4cc(N6c7ccccc7Sc7ccccc76)ccc4-5)cc3)ccc2-c2ccc(N3c4ccccc4Sc4ccccc43)cc21
photoluminescence quantum yield (in C1CCOC1): 0.33
photoluminescence quantum yield (in CC#N): 0.26
photoluminescence quantum yield (in CCCCCC): 0.72
photoluminescence quantum yield (in Cc1ccccc1): 0.58
photoluminescence quantum yield (in ClCCl): 0.33

photoluminescence quantum yield (in ClC(Cl)Cl): 0.21
SMILES: CCCCN1c2ccccc2Sc2cc(/C=C\c3cc(=O)oc4cc(C)ccc34)ccc21

photoluminescence quantum yield (in CC(C)O): 0.17
SMILES: CC[n+]1c(C=C2C(=O)C(C=C3Sc4cc(Cl)ccc4N3C)=C2[O-])[se]c2ccccc21

photoluminescence quantum yield (in CS(C)=O): 0.2
SMILES: c1csc(-c2nc3ccccc3c3cc4ccccn4c23)c1

photoluminescence quantum yield (in CC#N): 0.02
photoluminescence quantum yield (in CCO): 0.35
SMILES: Cc1cc(=O)oc2cc3cc(O)ccc3cc12

photoluminescence quantum yield (in CCO): 0.641
SMILES: Cc1c(C)n2c(COC(=O)c3ccccc3O)c(C)c(=O)n2c1=O

photoluminescence quantum yield (in CCO): 0.01
SMILES: C#Cc1ccc2cc3c(C)cc(=O)oc3cc2c1

photoluminescence quantum yield (in CCCCCCC): 0.00078
SMILES: c1ccc2c3c(ccc2c1)-c1cccc2cc4ccccc4c-3c12

SMILES: CCOC(=O)COc1ccc(/C=C/C2=C3c4ccccc4C(c4[nH]c(C)cc4C)=[N+]3[B-](F)(F)n3c(/C=C/c4ccc(OCC(=O)OCC)cc4)cc(C)c32)cc1
photoluminescence quantum yield (in C1CCOC1): 0.05
photoluminescence quantum yield (in CC#N): 0.009
photoluminescence quantum yield (in CCCCCC): 0.04
photoluminescence quantum yield (in CO): 0.002
photoluminescence quantum yield (in Cc1ccccc1): 0.009
photoluminescence quantum yield (in ClCCl): 0.012

SMILES: Cc1cc(C#Cc2ccccc2)c2ccc3c(C#Cc4ccccc4)cc(C#Cc4ccccc4)c4ccc1c2c43
photoluminescence quantum yield (in CS(C)=O): 0.72
photoluminescence quantum yield (in ClC(Cl)(Cl)Cl): 0.56

photoluminescence quantum yield (in ClC(Cl)Cl): 0.162
SMILES: CC[Si](CC)(CC)c1cc2ccc3cccc4ccc(c1C(=O)NC(C)(C)C)c2c34

SMILES: CCCCCCCCCCCCn1cccc1/C=C/c1cc(OCCCC)c(/C=C/c2cccn2CCCCCCCCCCCC)cc1OCCCC
photoluminescence quantum yield (in Cc1ccccc1): 0.4

photoluminescence quantum yield (in ClCCl): 0.12
SMILES: CN(C)c1ccc(-c2nc(-c3ccccc3)c3ccccn23)cc1

SMILES: c1ccc2c(c1)c1ccccc1n2-c1ccc(-c2ccc(-n3c4ccccc4c4ccccc43)nc2-n2c3ccccc3c3ccccc32)nn1
photoluminescence quantum yield (in Cc1ccccc1): 0.35

photoluminescence quantum yield (in ClCCl): 0.6
SMILES: C(=C\c1ncccn1)/c1ccc(-c2ccc(N(c3ccccc3)c3ccccc3)cc2)cc1

SMILES: F[B-]1(F)n2cccc2C(c2c3ccccc3c(-c3ccccc3)c3ccccc23)=C2C=CC=[N+]21
photoluminescence quantum yield (in CC#N): 0.001
photoluminescence quantum yield (in CCO): 0.002
photoluminescence quantum yield (in CN(C)C=O): 0.001
photoluminescence quantum yield (in Cc1ccccc1): 0.007
photoluminescence quantum yield (in ClCCl): 0.002

SMILES: CCCCCCCCN1c2ccccc2Sc2cc(/C=C/c3ccc(N(c4ccc(/C=C/c5ccc6c(c5)Sc5ccccc5N6CCCCCCCC)cc4)c4ccc(/C=C/c5ccc(/C=C/c6ccc(N(c7ccc(/C=C/c8ccc(N(c9ccccc9)c9ccccc9)cc8)cc7)c7ccc(/C=C/c8ccc(N(c9ccccc9)c9ccccc9)cc8)cc7)cc6)c6nsnc56)cc4)cc3)ccc21
photoluminescence quantum yield (in C1CCOC1): 0.031
photoluminescence quantum yield (in CCOC(C)=O): 0.062
photoluminescence quantum yield (in CN(C)C=O): 0.001
photoluminescence quantum yield (in Cc1ccccc1): 0.349
photoluminescence quantum yield (in ClC(Cl)Cl): 0.06
photoluminescence quantum yield (in ClCCl): 0.003

photoluminescence quantum yield (in ClCCl): 0.28
SMILES: COc1ccc(-c2cc3c(ccc4sc(/C=C/c5cccs5)cc43)s2)cc1

photoluminescence quantum yield (in C1CCOC1): 0.343
SMILES: CC(C)(C)c1ccc(-c2c(-c3ccc(-n4c5ccccc5c5ccccc54)cc3)cc(-c3ccc(-n4c5ccccc5c5ccccc54)cc3)c(-c3ccc(C(C)(C)C)cc3)c2-c2ccc(C(C)(C)C)cc2)cc1

photoluminescence quantum yield (in ClCCl): 0.02
SMILES: CSc1ccc(/C=C/c2cnc3ccccc3n2)cc1

photoluminescence quantum yield (in CCO): 0.003
SMILES: CN(C)c1ccc(-c2cc[n+](C)cc2)s1

photoluminescence quantum yield (in ClC(Cl)Cl): 0.57
SMILES: CC1=CC(C)=[N+]2C1=C(c1ccc(I)cc1)c1c(C)cc(C)n1[B-]2(F)F

SMILES: Cc1cc(C)c(-c2nnc(-c3ccc(-n4c5ccccc5c5ccccc54)cc3)o2)c(C)c1
photoluminescence quantum yield (in Cc1ccccc1): 0.59

photoluminescence quantum yield (in CC#N): 0.42
photoluminescence quantum yield (in CCCCCC): 0.55
photoluminescence quantum yield (in CCOC(C)=O): 0.44
photoluminescence quantum yield (in CO): 0.5
photoluminescence quantum yield (in ClCCl): 0.52
SMILES: F[B-]1(F)n2c(NCc3ccccc3)ccc2C(c2c(Cl)cccc2Cl)=C2C=CC(NCc3ccccc3)=[N+]21

photoluminescence quantum yield (in ClC(Cl)Cl): 0.188
SMILES: Cc1cccc(C2=Cc3c4ccccc4c4ccccc4[n+]3[B-](F)(F)O2)c1

photoluminescence quantum yield (in ClCCl): 0.0078
SMILES: CC1=C(c2ccc(N(c3ccccc3)c3ccccc3)cc2)C(C)=[N+]2C1=C(c1c(-c3ccccn3)nc3ccccn13)c1c(C)c(-c3ccc(N(c4ccccc4)c4ccccc4)cc3)c(C)n1[B-]2(F)F

photoluminescence quantum yield (in ClCCl): 0.76
SMILES: CN(C)c1ccc(C2=C3C=C(c4ccc(C#N)cc4)S[C@]34c3ccccc3[C@H]2c2ccccc24)cc1
